In one assay the target is T1, Substance-K receptor (Homo sapiens, UniProt P21452). Further: in other assays of this panel Not Active means under 50% inhibition at 10 µM.
T1 sequence (P21452 whole entry): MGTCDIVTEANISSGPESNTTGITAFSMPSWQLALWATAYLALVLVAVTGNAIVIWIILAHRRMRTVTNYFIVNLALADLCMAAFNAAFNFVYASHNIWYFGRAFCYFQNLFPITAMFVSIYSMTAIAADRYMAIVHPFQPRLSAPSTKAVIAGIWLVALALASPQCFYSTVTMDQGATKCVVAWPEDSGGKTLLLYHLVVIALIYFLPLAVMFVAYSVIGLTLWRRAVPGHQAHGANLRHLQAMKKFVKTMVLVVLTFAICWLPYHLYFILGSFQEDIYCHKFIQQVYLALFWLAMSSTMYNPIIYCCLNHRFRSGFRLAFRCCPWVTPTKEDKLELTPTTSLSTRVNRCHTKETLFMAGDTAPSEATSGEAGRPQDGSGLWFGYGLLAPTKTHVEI
It counts as cell membranes, CHO, Membrane. The note with it: cho.

A further assay addresses Adenosine receptor A2a (Homo sapiens, UniProt P29274). Briefly: DRUGMATRIX: Adenosine A2A radioligand binding (ligand: […]). It counts as cell membranes, HEK293, Membrane. As to conditions: hek293; Not Active = under 50% inhibition at 10 µM.
Assay [1] deals with Epidermal growth factor receptor (Homo sapiens, UniProt P00533). Briefly: DRUGMATRIX: Protein Tyrosine Kinase, EGF Receptor enzyme inhibition (substrate: Poly(Glu:Tyr)). It counts as cell-based, Insect cells. As to conditions: insect cells; Not Active = under 50% inhibition at 10 µM.
The target of assay [2] is T2, Muscarinic acetylcholine receptor M2 (Homo sapiens, UniProt P08172). Further: in other assays of this panel Not Active means under 50% inhibition at 10 µM.
T2 sequence (P08172 whole entry): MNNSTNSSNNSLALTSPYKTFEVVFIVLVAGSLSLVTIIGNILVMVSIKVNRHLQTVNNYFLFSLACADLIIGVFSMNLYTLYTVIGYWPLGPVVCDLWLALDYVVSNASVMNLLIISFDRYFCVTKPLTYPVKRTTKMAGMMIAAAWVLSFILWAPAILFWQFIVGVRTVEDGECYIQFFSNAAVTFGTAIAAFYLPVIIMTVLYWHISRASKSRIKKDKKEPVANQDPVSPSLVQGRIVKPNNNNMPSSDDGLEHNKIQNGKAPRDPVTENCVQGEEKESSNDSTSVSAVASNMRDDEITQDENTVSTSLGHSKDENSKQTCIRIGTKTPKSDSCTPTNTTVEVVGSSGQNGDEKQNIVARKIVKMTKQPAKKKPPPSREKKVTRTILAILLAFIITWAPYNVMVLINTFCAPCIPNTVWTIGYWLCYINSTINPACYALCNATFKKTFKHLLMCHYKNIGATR
It is filed as cell membranes, CHO-K1, Membrane. As to conditions: cho-k1.

Another assay concerns the target T3, B2 bradykinin receptor (Homo sapiens, UniProt P30411). Further: in other assays of this panel Not Active means under 50% inhibition at 10 µM.
T3 sequence (P30411 whole entry): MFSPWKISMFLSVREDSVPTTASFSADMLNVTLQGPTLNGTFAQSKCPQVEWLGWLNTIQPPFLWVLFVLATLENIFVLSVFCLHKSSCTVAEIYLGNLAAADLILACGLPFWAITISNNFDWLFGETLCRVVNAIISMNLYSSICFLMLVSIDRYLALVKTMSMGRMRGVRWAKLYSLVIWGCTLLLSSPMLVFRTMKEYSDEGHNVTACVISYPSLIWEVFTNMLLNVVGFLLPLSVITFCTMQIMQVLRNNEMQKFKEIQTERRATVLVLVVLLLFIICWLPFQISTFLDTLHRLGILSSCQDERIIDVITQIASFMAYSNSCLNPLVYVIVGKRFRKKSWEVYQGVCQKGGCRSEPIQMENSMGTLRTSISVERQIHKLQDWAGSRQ
It counts as cell membranes, Membrane. As to conditions: chem-1.

Adenosine receptor A2a, sequence (P29274 whole entry): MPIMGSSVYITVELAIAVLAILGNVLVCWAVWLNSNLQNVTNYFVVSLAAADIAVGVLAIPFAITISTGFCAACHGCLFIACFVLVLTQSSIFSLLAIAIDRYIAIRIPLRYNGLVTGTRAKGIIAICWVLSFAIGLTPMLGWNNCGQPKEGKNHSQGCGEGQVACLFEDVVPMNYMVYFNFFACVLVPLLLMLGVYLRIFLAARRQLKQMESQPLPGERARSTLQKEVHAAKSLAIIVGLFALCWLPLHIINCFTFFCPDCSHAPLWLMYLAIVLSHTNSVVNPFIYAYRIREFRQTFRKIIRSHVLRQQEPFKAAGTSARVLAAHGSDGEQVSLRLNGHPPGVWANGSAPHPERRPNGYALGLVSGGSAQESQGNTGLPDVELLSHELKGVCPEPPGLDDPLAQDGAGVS

As a reminder, the IC50 is the point on the concentration scale where inhibition reaches its midpoint. The Ki is a dissociation constant, usually derived from enzyme kinetics or from competition with a known ligand. As for GADOPENTETATE DIMEGLUMINE, the IC50 entry (on Substance-K receptor; at Adenosine receptor A2a; in assay [1]; in assay [2]; against B2 bradykinin receptor) was “Not Active” in each case. Also, the Ki result (on Substance-K receptor; at Adenosine receptor A2a; in assay [1]; in assay [2]; at B2 bradykinin receptor) was “Not Active” in each case.
With GENTAMICIN, the half-inhibitory concentration (IC50) result (at Substance-K receptor; on Adenosine receptor A2a; in assay [1]; in assay [2]; at B2 bradykinin receptor) was “Not Active” each time. The Ki result (at Substance-K receptor; at Adenosine receptor A2a; in assay [1]; in assay [2]; at B2 bradykinin receptor) was “Not Active” in each case.
For the sequence GRAMICIDIN, the IC50 at Substance-K receptor (read-out: IC50) is 4.56 µM; at Adenosine receptor A2a, “Not Active”; in assay [1] it was “Not Active”; in assay [2], “Not Active”; on B2 bradykinin receptor, “Not Active”. In addition, the Ki at Substance-K receptor (read-out: Ki) was 1.52 µM; on Adenosine receptor A2a, “Not Active”; in assay [1], “Not Active”; in assay [2], “Not Active”; on B2 bradykinin receptor it was “Not Active”.
For the sequence NYSTATIN, the IC50 result (at Substance-K receptor; on Adenosine receptor A2a; in assay [1]; in assay [2]; against B2 bradykinin receptor) was “Not Active” throughout. For the same sequence, the Ki entry (on Substance-K receptor; at Adenosine receptor A2a; in assay [1]; in assay [2]; at B2 bradykinin receptor) was “Not Active” each time.
